# Measurements from publication PMC6515479, “An Investigation on Glucuronidation Metabolite Identification, Isozyme Contribution, and Species Differences of GL-V9 In Vitro and In Vivo” (Molecules, 2019).
# Key:
# Assay type in all cases: in vitro ADME
# rUGT2B4 = target: T1, rUGT2B4 (Homo sapiens, UniProt P06133); experiment: UGT phenotyping of GL-V9 glucuronidation, rUGT2B4; settings: GL-V9 0.5, 1, 5 μM, 37 °C, 1 h
# T1 construct: purchased Corning (Woburn, MA, USA)
# T1 sequence (P06133 24-528): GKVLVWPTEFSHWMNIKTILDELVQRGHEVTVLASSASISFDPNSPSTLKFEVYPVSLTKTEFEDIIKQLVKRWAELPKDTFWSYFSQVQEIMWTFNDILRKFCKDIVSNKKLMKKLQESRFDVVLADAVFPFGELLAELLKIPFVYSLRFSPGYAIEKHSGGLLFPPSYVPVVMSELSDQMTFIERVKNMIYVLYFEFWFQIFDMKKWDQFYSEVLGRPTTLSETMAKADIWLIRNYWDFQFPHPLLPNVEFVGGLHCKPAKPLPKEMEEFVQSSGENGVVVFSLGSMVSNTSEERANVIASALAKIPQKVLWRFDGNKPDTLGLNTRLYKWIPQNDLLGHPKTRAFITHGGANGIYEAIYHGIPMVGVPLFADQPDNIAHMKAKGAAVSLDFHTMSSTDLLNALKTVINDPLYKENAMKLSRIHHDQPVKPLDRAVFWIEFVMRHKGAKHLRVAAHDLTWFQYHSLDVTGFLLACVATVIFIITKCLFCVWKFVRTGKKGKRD
# Method: (§1) The composition of the incubation system (200 μL) contained liver microsomes of different species (0.1 mg protein/mL), 5 mM saccharolactone (D-saccharic acid 1,4-lactone monohydrate), 10 mM MgCl2, alamethicin (50 μg/mg protein), Tris-HCl buffer (50 mM, pH 7.4) and GL-V9 (1 μM). After 5 min of preincubation at 37 °C, UDPGA (5 mM) was added to initiate the phase II reaction. Control incubation samples were performed without UDPGA or without substrates (GL-V9). The reaction was terminated by addition of ice-cold methanol (three volumes) after incubation for 1 h at 37 °C. Samples were vortexed, centrifuged at 21,500× g for 10 min and then stored at 4 °C until HPLC-UV-TripleTOF analysis. To confirm that these metabolites are conjugates resulting from glucuronidation reaction, enzymatic hydrolysis of samples was processed. β-glucuronidase (100 KU, Sigma) was added and the hydrolysis was performed overnight at 37 °C. The control samples were carried out without β-glucuronidase under the same condition.
# (§2) Twelve human recombinant UGT isoforms (rUGT1A1, rUGT1A3, rUGT1A4, rUGT1A6, rUGT1A7, rUGT1A8, rUGT1A9, rUGT1A10, rUGT2B4, rUGT2B7, rUGT2B15, and rUGT2B17) were employed to identify the main UGT enzyme(s) responsible for glucuronidation of GL-V9 under mixture conditions as described in Section 4.3. […]
# rUGT2B15 = target: T2, rUGT2B15 (Homo sapiens, UniProt P54855); experiment: UGT phenotyping of GL-V9 glucuronidation, rUGT2B15; settings: GL-V9 0.5, 1, 5 μM, 37 °C, 1 h
# T2 construct: purchased Corning (Woburn, MA, USA)
# T2 sequence (P54855 24-530): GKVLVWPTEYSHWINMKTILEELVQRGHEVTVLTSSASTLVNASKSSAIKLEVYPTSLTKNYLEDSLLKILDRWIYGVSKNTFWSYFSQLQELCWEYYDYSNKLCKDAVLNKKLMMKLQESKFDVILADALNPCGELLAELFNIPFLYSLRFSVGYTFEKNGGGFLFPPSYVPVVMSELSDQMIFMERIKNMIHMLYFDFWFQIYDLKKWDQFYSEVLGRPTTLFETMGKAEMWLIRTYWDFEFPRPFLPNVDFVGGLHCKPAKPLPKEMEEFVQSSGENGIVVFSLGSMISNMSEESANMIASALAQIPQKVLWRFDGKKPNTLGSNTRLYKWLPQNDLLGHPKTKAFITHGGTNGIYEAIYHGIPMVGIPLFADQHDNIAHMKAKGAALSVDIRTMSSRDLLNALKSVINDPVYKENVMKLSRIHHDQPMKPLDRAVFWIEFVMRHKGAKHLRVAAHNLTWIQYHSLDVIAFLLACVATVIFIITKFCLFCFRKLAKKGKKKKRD
# Method: as §1, §2
# [1] = test system: beagle dog liver microsomes (DLMs); experiment: Enzyme kinetics of GL-V9 glucuronidation in beagle dog liver microsomes (DLMs); settings: formation of 5-O-glucuronide GL-V9, protein 0.1 mg/mL, mean ± SD, n = 3
# Method: as §1
# (§3) Enzyme kinetics experiments were carried out in triplicate among five different species, including monkey, beagle dog, rat, mouse, and human. The reaction system and operations are as same as described in Section 4.3. The solutions of GL-V9 were selected over a range of concentrations (0.05, 0.2, 0.5, 1, 2, 5, 10, 20 μM). […]
# [2] = as above; settings: beagle, dog, liver microsomes, pH 7.4, formation of 5-O-glucuronide GL-V9, protein 0.1 mg/mL, mean ± SD, n = 3
# Method: as §1, §3
# rUGT1A6 = target: T3, rUGT1A6 (Homo sapiens, UniProt P19224); experiment: UGT phenotyping of GL-V9 glucuronidation, rUGT1A6; settings: GL-V9 0.5, 1, 5 μM, 37 °C, 1 h
# T3 construct: purchased Corning (Woburn, MA, USA)
# T3 sequence (P19224 27-532): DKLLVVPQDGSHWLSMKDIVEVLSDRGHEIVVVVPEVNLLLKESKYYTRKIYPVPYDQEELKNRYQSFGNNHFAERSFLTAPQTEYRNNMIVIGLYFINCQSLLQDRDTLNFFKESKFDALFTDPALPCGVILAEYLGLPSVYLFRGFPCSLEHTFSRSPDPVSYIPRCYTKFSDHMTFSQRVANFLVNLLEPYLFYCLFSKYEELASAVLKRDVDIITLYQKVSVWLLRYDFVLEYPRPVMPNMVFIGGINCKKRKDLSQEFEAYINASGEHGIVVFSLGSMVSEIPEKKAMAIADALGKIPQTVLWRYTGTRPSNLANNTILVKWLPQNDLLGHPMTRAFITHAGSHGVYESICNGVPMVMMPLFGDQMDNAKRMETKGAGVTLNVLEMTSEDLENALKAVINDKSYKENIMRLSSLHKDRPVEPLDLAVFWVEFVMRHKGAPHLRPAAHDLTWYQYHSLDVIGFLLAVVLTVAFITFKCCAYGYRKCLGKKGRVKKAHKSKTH
# Method: as §1, §2
smiles,measurement,setting,value
COc1c(OCCCCN2CCCC2)cc(O)c2c(=O)cc(-c3ccccc3)oc12 [GL-V9],Catalytic activity in the production of 5-O-glucuronide GL-V9,rUGT2B4,did not show apparent catalytic activity
same,Catalytic activity in the production of 5-O-glucuronide GL-V9,rUGT2B15,did not show apparent catalytic activity
same,Vmax,[1],22.03 ± 0.42 pmol/min/mg
same,Km at 1 h,[2],12.5 ± 1.43 µM
same,Metabolism rate (glucuronidation),rUGT1A6,too low to be biologically relevant
